{"source": "patent US20090069424A1", "about": "“TGF-alpha expression inhibitors” (NIKKEN CHEMICALS CO., LTD., priority 2002, published 2009)", "key": {"[1]": {"system": "TGF-α expression in oval cells", "test": "Induction of TGF-α positive oval cells of a rat by 3′-MeDAB, anti TGF-α immunohistological staining of liver", "assay_type": "in vivo", "protocol": "Male Fischer rats (F344/N Slc, 6-week old) were used as an animal, and the rats were given with solid feed prepared to contain a hepatic chemical carcinogen 3′-MeDAB in a ratio of 0.06% for four weeks to induce oval cells. NIK-333 was suspended in soybean oil, and a dose of 80 mg/kg was orally administered to each rat for four weeks (once/a day) along with the administration of 3′-MeDAB. To a control group, soybean oil (5 mL/kg) was orally administered. After 4 weeks from the start of the administration of 3′-MeDAB, livers were extirpated under anesthesia. The livers were subjected to 10% formalin fixation and paraffin embedding, and further to immunological staining by using an anti TGF-α antibody. TGF-α expression levels were analyzed under microscope.\nFIGS. 1 to 3 are photographs showing inhibitory effects on induction of TGF-α positive oval cells induced by the four-week administration of 3′-MeDAB, when 80 mg/kg/day of NIK-333 was simultaneously administered for four weeks (immunohistological staining by using the anti TGF-α antibody). Similar observations were obtained in other animals which were analyzed at the same time."}, "[2]": {"system": "TGF-α expression in oval cells", "test": "TGF-α expression in oval cells in a rat induced by D-galactosamine hydrochloride, anti TGF-α immunohistological staining", "assay_type": "in vivo", "settings": "200 mg/kg/day orally for four days; control strongly positive; FIG. 15", "protocol": "Male SD rats (Crj/CD (SD), 6-week old) were used as an animal, and D-galactosamine hydrochloride (5 ml/kg) prepared as 200 mg/mL with physiological saline was intraperitoneally administered once to each rat to induce oval cells. NIK-333 was suspended in soybean oil, and a dose of 200 mg/kg was orally administered to each rat for 1 to 6 days. To the control group, soybean oil (2 mL/kg) was orally administered. From the next day to 7 days after the start of the administration, the livers were extirpated under anesthesia with passage of time. The livers were subjected to 10% formalin fixation and paraffin embedding, and further to immunological staining by using an anti TGF-α antibody. TGF-α expression levels were analyzed under microscope.\nFIGS. 13 to 15 are photographs showing inhibitory effects on TGF-α expression in oval cells induced by the administration of D-galactosamine hydrochloride, when 200 mg/kg/day of NIK-333 was administered for four days (immunohistological staining using an anti TGF-α antibody). Similar observations were obtained in other animals which were analyzed at the same time."}, "hepatoma": {"system": "hepatoma", "settings": "clinical, cited from earlier work"}, "[3]": {"system": "TGF-α expression in non-tumor hepatic tissue", "test": "TGF-α expression in non-tumor hepatic tissue of a rat after DEN administration, anti TGF-α immunohistological staining", "assay_type": "in vivo", "settings": "80 mg/kg/day orally for 14 weeks from one week after 5-week DEN; control strongly positive; FIGS. 6 and 9", "protocol": "Male Fischer rats (F344/N Slc, 6-week old) were used as an animal, and the rats were administered with a hepatic chemical carcinogen DEN for 5 weeks in a form of drinking water (concentration: 40 ppm), and then bred with normal drinking water for successive 15 weeks to induce hepatocellular carcinoma. NIK-333 was suspended in soybean oil, and a dose of 80 mg/kg was orally administered to each rat for 14 weeks (once/a day) from one week after the end of the administration of DEN. To a control group, soybean oil (5 mL/kg) was orally administered. After 20 weeks from the start of the administration of DEN, livers were extirpated under anesthesia. The livers were subjected to 10% formalin fixation and paraffin embedding, and further to immunological staining by using an anti TGF-α antibody. TGF-α expression levels were analyzed under microscope.\nFIGS. 4 to 6 are photographs showing inhibitory effects on TGF-α expression in a non-tumor hepatic tissue, when the administration was ceased for one week after the 5-week treatment with DEN, and then 80 mg/kg/day of NIK-333 was administered for 14 weeks (immunohistological staining by using an anti TGF-α antibody). Similar observations were obtained in other animals which were analyzed at the same time."}}, "data": [{"smiles": "CC(C)=CCC/C(C)=C/CC/C(C)=C/C=C/C(C)=C/C(=O)O", "note": "[NIK-333, (2E,4E,6E,10E)-3,7,11,15-tetramethyl-2,4,6,10,14-hexadecapentaenoic acid]", "values": [{"measurement": "TGF-α observation of oval cells expressed with 3′-MeDAB", "setting": "[1]; 80 mg/kg/day orally for four weeks along with 0.06% 3′-MeDAB feed, control strongly positive, FIG. 3", "result": "weakly positive"}, {"measurement": "number of oval cells with strongly positive TGF-α observation, expressed with 3′-MeDAB", "setting": "[1]; 80 mg/kg/day orally for four weeks along with 3′-MeDAB, versus control, FIG. 12", "result": "reduced"}, {"measurement": "TGF-α observation of oval cells expressed by D-galactosamine hydrochloride", "setting": "[2]", "result": "weakly positive"}, {"measurement": "side effect such as dysfunction of liver and those with other retinoids", "setting": "hepatoma; during one-year administration", "result": "almost no side effect"}, {"measurement": "recurrence after radical cure of hepatoma", "setting": "hepatoma; long-term administration for one year", "result": "significantly suppressed"}, {"measurement": "TGF-α observation in hepatic tissues surrounding the central vein, expressed by DEN", "setting": "[3]", "result": "almost negative"}]}]}
